One may read the inhibition as how much of the control response was suppressed. By % inhibition is commonly meant the change of the read-out against control, counted positive when it falls.

Data on three compounds can be found in patent US10420758B2, “Indolinyl-sulfonamide inhibitors of tankyrase and methods of use thereof” (The Board of Regents of the University of Texas System, priority 2015, dated 2019).

What all share (assay): PARP profiling, parsylation of immobilized histone
What all share (type): biochemical

One test has as its target T1, PARP12 (Homo sapiens, UniProt Q9H0J9).
T1 sequence (Q9H0J9 1-701): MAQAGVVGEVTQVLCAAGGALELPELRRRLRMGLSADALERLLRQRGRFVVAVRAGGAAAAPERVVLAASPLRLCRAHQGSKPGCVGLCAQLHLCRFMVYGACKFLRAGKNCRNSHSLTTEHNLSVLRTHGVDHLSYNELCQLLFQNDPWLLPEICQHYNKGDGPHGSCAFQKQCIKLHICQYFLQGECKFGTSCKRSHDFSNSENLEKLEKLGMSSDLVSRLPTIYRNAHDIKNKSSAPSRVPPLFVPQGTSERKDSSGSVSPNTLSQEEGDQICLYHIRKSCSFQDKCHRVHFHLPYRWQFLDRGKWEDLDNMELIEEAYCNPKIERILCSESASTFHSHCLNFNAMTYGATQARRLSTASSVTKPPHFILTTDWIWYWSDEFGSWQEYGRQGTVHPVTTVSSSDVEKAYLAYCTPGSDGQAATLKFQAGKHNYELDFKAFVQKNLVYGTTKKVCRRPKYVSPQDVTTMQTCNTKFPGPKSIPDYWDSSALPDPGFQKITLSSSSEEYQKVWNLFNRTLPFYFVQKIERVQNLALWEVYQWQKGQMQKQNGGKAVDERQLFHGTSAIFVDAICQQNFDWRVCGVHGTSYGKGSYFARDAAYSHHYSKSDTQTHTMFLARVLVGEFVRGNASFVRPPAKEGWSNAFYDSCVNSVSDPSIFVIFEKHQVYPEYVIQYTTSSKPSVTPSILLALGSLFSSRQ
The procedure:
(§1) Performed by BPS Bioscience Inc., San Diego by following the BPS PARP or TNKS assay kit protocols. The enzymatic reactions were conducted in duplicate at room temperature for 1 hr in a 96 well plate coated with histone substrate. […] of reaction buffer (Tris.HCl, pH 8.0) contains NAD^+, biotinylated NAD^+, activated DNA, recombinant PARP enzyme and 10 μM of the test compound. […] After enzymatic reactions, 50 μL of Streptavidin-horseradish peroxidase was added to each well and the plate was incubated at room temperature for an additional 30 min. 100 μL of developer reagents were added to wells and luminescence was measured using a BioTek Synergy™ 2 microplate reader.

A further test deals with T2, PARP8 (Homo sapiens, UniProt Q8N3A8).
T2 sequence (Q8N3A8 1-854): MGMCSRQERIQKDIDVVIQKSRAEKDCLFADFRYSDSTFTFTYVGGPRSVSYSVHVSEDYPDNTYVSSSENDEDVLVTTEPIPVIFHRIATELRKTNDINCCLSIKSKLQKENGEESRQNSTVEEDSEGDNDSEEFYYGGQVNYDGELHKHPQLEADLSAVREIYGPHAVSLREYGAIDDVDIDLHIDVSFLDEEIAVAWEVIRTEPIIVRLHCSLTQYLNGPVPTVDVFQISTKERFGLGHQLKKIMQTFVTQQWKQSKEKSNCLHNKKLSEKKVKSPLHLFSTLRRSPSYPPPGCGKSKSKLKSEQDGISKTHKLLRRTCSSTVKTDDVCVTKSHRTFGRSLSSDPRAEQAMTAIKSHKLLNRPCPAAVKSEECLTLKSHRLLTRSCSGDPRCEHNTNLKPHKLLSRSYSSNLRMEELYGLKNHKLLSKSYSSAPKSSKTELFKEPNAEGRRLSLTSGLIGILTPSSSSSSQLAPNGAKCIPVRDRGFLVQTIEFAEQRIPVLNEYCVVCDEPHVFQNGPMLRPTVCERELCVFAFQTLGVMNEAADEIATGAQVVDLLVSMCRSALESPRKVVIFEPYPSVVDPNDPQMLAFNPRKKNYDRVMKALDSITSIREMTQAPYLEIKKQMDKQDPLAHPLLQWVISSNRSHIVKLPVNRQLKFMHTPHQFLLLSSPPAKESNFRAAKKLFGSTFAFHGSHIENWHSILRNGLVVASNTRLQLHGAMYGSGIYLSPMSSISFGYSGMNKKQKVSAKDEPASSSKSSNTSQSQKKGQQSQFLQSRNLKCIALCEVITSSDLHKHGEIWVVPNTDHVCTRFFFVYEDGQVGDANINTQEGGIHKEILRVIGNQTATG
How it is done:
as §1

The next test addresses T3, PARP3 (Homo sapiens, UniProt Q9Y6F1).
T3 sequence (Q9Y6F1 1-533): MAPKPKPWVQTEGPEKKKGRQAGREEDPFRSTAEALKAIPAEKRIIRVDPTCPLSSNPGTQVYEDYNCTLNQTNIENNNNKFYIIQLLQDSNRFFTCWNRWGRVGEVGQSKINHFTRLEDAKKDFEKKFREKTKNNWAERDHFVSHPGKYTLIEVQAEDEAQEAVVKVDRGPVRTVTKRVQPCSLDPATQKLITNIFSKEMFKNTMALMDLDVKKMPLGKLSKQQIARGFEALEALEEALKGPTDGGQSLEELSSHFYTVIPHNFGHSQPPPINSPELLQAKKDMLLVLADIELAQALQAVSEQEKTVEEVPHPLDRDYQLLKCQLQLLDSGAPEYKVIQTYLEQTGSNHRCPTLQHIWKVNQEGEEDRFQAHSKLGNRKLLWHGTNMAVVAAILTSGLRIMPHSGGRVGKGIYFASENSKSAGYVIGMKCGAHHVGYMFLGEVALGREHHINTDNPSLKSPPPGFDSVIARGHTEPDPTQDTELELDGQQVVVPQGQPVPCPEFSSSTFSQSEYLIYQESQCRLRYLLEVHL
The procedure:
as §1

Regarding `CCN(C(=O)C1CCN(S(=O)(=O)c2cc3c(cc2Br)CCN3C(C)=O)CC1)c1cccc(C)c1` [IWR-8], the inhibition at 10 µM came out at 14% on PARP12 (IWR compounds 10 μM), 0% at PARP8 (IWR compounds 10 μM) and 11% on PARP3.

Consider `O=C(c1cc(Cc2n[nH]c(=O)c3ccccc23)ccc1F)N1CCN(C(=O)C2CC2)CC1` [Olaparib], for which the inhibition at 0.02 µM turned out to be 84% on PARP12, 96% on PARP8 and 100% at PARP3.

In the case of `O=C(Nc1cccc2cccnc12)c1ccc(N2C(=O)[C@@H]3[C@H](C2=O)[C@@H]2C=C[C@H]3C2)cc1` [IWR-1], the “% inhibition” value is 11% on PARP12 (IWR compounds 10 μM), 1% at PARP8 (IWR compounds 10 μM) and 6% on PARP3 (IWR compounds 10 μM).
